Melting point data for 69 molecules are collected here from US7998989B2, “2-Imino-1,3-thiazoline-based compounds and T-type calcium channel inhibitors containing the same” (Korea Institute of Science and Technology, priority 2007, dated 2011).

The structures appear in SMILES notation.

One may read the melting point as the temperature, or range, at which the solid turns liquid.

Take `COc1ccc(CNC(=O)CC2CSC(=NC3CCCC3)N2C)cc1.Cl` (stereo not drawn): the melting point was 172 to 173.5 °C.
The result for `CC1SC(=NC2CCCCC2)N(C)C1CC(=O)Nc1ccccc1.Cl` (stereo not drawn) reads 231 to 234 °C; that for `CN1C(=NC2CC2)SCC1CC(=O)Nc1cc([N+](=O)[O-])ccc1F.Cl` (stereo not drawn), 237.5 to 238 °C; that for `CCCCc1ccc(NC(=O)CC2CSC(=NC3C4CC5CC(C4)CC3C5)N2C)cc1.Cl` (stereo not drawn), 127 °C.
With `CC(C)c1ccc(NC(=O)CC2CSC(=NC3CC3)N2C)cc1.Cl` (stereo not drawn) the figure was 238 to 238.5 °C; with `COc1ccc(CNC(=O)CC2CSC(=NC3CC3)N2C)cc1.Cl` (stereo not drawn), 220.5 to 222 °C; with `CN1C(=NC2CC2)SCC1CC(=O)Nc1ccc(Br)cc1.Cl` (stereo not drawn), 227 to 228.5 °C.
The molecule `CN1C(=NC2CCCCC2)SCC1CC(=O)Nc1ccc2c(c1)OCO2.Cl` (stereo not drawn) (hydrate or solvate) [KHG24086, (2-cyclohexylimino-3-methyl-1,3-thiazolidine-4-yl)-N-(3,4-methylenedioxyphenyl)-acetamide hydrochloride] yielded a melting point of 146 to 147 °C.
`CCCCN1C(=NC23CC4CC(CC(C4)C2)C3)SCC1CC(=O)Nc1ccc(Oc2ccccc2)cc1.Cl` (stereo not drawn) had a melting point of 127 °C.
The result for `Cl.O=C(CC1CSC(=NC2CCCCC2)N1C1CCCCC1)Nc1ccc(F)cc1` (stereo not drawn) reads 256 °C.
With `CN1C(=NC2CCCC2)SCC1CC(=O)Nc1ccccc1.Cl` (stereo not drawn) the figure was 231.5 to 233 °C.
With `Cl.O=C(CC1CSC(=NC2CCCCC2)N1Cc1ccccc1)Nc1cc([N+](=O)[O-])ccc1F` (stereo not drawn) the figure was 166.4 °C; with `CN1C(=NC2CCCCCC2)SCC1C(=O)Nc1ccc(Oc2ccccc2)cc1` (stereo not drawn) [KHG24682, (2-cycloheptylimino-3-methyl-1,3-thiazolidine-4-yl)-N-(4-phenoxyphenyl)-carboxamide], 278.6 °C; with `CN1C(=NC2CCCCCC2)SCC1C(=O)Nc1ccc(Cl)cc1` (stereo not drawn) [KHG24677, (2-cycloheptylimino-3-methyl-1,3-thiazolidine-4-yl)-N-(4-chlorophenyl)-carboxamide], 199.7 °C.
The molecule `COc1ccc(NC(=O)CC2C(C)SC(=NC3CCCCCC3)N2C)cc1` (stereo not drawn) [KHG24485, (2-cycloheptylimino-3,5-dimethyl-1,3-thiazolidine-4-yl)-N-(4-methoxyphenyl)-acetamide] yielded a melting point of 250 to 251 °C.
With `CN1C(=NC2CCCCCC2)SCC1C(=O)Nc1cc(Cl)cc(Cl)c1` (stereo not drawn) [KHG24674, (2-cycloheptylimino-3-methyl-1,3-thiazolidine-4-yl)-N-(3,5-dichlorophenyl)-carboxamide] the figure was 191.2 °C.
The result for `CC(C)c1ccc(NC(=O)C2CSC(=NC3CCCCCC3)N2C)cc1` (stereo not drawn) [KHG24680, (2-cycloheptylimino-3-methyl-1,3-thiazolidine-4-yl)-N-(4-isopropylphenyl)-carboxamide] reads 207.6 °C.
With `CCc1ccc(NC(=O)C2CSC(=NC3CCCCCC3)N2C)cc1` (stereo not drawn) [KHG24664, (2-cycloheptylimino-3-methyl-1,3-thiazolidine-4-yl)-N-(4-ethylphenyl)-carboxamide] the figure was 194 to 195 °C.
As to `CN1C(=NC2CC2)SCC1CC(=O)Nc1ccc(F)cc1.Cl` (stereo not drawn), the melting point fell in the range of 252 to 253.5 °C.
In turn, `CN1C(=NC2CCCC2)SCC1CC(=O)NCc1ccc(F)cc1.Cl` (stereo not drawn) showed a melting point of 160.5 to 162 °C.
The result for `Br.CN1C(=NC2CCCCCC2)SCC1C(=O)Nc1cc(Cl)ccc1F` (stereo not drawn) reads 262.2 °C; that for `CC(C)c1ccc(NC(=O)CC2CSC(=NC3C4CC5CC(C4)CC3C5)N2C)cc1.Cl` (stereo not drawn), 245 °C; that for `CN1C(=NC2CCCCCC2)SCC1C(=O)Nc1ccc(C(C)(C)C)cc1` (stereo not drawn) [KHG24684, (2-cycloheptylimino-3-methyl-1,3-thiazolidine-4-yl)-N-(4-t-butylphenyl)-carboxamide], 170.8 °C.
With `Cc1ccc(NC(=O)CC2CSC(=NC3CCCC3)N2C)c(Cl)c1.Cl` (stereo not drawn) the figure was 185 to 186.5 °C; with `Cc1ccc(NC(=O)CC2C(C)SC(=NC3CCCC3)N2C)cc1.Cl` (stereo not drawn), 228 to 229 °C.
In the case of `Cc1ccc(NC(=O)CC2CSC(=NC3CC3)N2C)c(F)c1.Cl` (stereo not drawn), the melting point was in the range of 199.5 to 200.5 °C.
With `CN1C(=NC2CC2)SCC1CC(=O)NCc1ccc(Cl)cc1.Cl` (stereo not drawn) the figure was 225.5 to 227 °C; with `Cl.O=C(CC1CSC(=NC2CCCCC2)N1C1CCCCC1)Nc1cc(Cl)ccc1F` (stereo not drawn), 158 °C.
The result for `COc1ccc(NC(=O)CC2CSC(=NC3CCCC3)N2C)cc1.Cl` (stereo not drawn) reads 210 to 211 °C.
With `CN1C(=NC2CC2)SCC1CC(=O)Nc1ccc(CC#N)cc1.Cl` (stereo not drawn) the figure was 245 to 245.5 °C; with `Cl.O=C(CC1CSC(=NC2CCCCC2)N1C1CCCCC1)NCc1ccc(Cl)cc1` (stereo not drawn), 152 °C.
In turn, `CN1C(=NC2CCCCCC2)SCC1C(=O)Nc1ccccc1Cl` (stereo not drawn) [KHG24624, (2-cycloheptylimino-3-methyl-1,3-thiazolidine-4-yl)-N-(2-chlorophenyl)-carboxamide] displayed a melting point of 198.4 °C.
With `COc1ccc(CNC(=O)CC2CSC(=NC3CCCCC3)N2C)cc1.Cl` (stereo not drawn) the figure was 193 to 195 °C; with `CN1C(=NC2CCCCCC2)SCC1C(=O)Nc1cc(F)ccc1F` (stereo not drawn) [KHG24625, (2-cycloheptylimino-3-methyl-1,3-thiazolidine-4-yl)-N-(2,5-difluorophenyl)-carboxamide], 184.2 °C.
`CN1C(=NC2CC2)SCC1CC(=O)NCc1ccc(F)cc1.Cl` (stereo not drawn) yielded a melting point of 200.5 to 202.5 °C.
With `Br.CN1C(=NC2CCCCCC2)SCC1C(=O)Nc1cc([N+](=O)[O-])ccc1F` (stereo not drawn) the figure was 264.8 °C.
Take `Br.Cc1ccc(NC(=O)C2CSC(=NC3CCCCCC3)N2C)cc1` (stereo not drawn): the melting point amounted to 278.9 °C.
The result for `CN1C(=NC2CC2)SCC1CC(=O)Nc1cc(Cl)ccc1F.Cl` (stereo not drawn) reads 233.5 to 234.5 °C; that for `CCCCc1ccc(NC(=O)C2CSC(=NC3CCCCCC3)N2C)cc1` (stereo not drawn) [KHG24689, (2-cycloheptylimino-3-methyl-1,3-thiazolidine-4-yl)-N-(4-n-butylphenyl)-carboxamide], 173.3 °C.
The result for `CCCN1C(=NC2CCCCC2)SCC1CC(=O)Nc1cc(C(F)(F)F)cc(C(F)(F)F)c1.Cl` (stereo not drawn) reads 243.4 °C; that for `Cc1ccc(NC(=O)CC2CSC(=NC3CC3)N2C)c(Cl)c1.Cl` (stereo not drawn), 212 to 212.5 °C; that for `CN1C(=NC2CC2)SCC1CC(=O)Nc1ccc(Cl)cc1F.Cl` (stereo not drawn), 237 to 237.5 °C.
With `CN1C(=NC2CCCCCC2)SCC1C(=O)Nc1ccc(F)cc1.Cl` (stereo not drawn) the figure was 265.3 °C.
In turn, `CN1C(=NC2CC2)SCC1CC(=O)Nc1ccccc1.Cl` (stereo not drawn) came in with a melting point of 240.5 to 241 °C.
The result for `Br.CN1C(=NC2CCCCCC2)SCC1C(=O)Nc1ccc(C(C)(C)C)cc1` (stereo not drawn) reads 169.9 °C.
The result for `CCCCc1ccc(NC(=O)CC2CSC(=NC34CC5CC(CC(C5)C3)C4)N2C(C)C)cc1.Cl` (stereo not drawn) reads 178 °C.
With `CC1SC(=NC2CCCCC2)N(C)C1CC(=O)Nc1ccc(C(C)(C)C)cc1.Cl` (stereo not drawn) the figure was 255 to 257 °C; with `CN1C(=NC2CCCCC2)SCC1CC(=O)NCc1ccccc1.Cl` (stereo not drawn), 206 to 206.5 °C; with `CC(C)c1ccc(NC(=O)CC2CSC(=NC3CCCCC3)N2C2CCCCC2)cc1.Cl` (stereo not drawn), 199.7 °C.
As for `CN1C(=NCC2CCCCC2)SCC1CC(=O)Nc1ccc(Oc2ccccc2)cc1.Cl` (stereo not drawn), the melting point amounted to 250.8 °C.
The result for `CN1C(=NC2CCCC2)SCC1CC(=O)Nc1ccc(CC#N)cc1.Cl` (stereo not drawn) reads 199.5 to 200 °C; that for `CC1SC(=NC2CCCC2)N(C)C1CC(=O)Nc1ccccc1.Cl` (stereo not drawn), 186 to 188 °C; that for `CN1C(=NC2CCCCCC2)SCC1C(=O)Nc1ccccc1` (stereo not drawn) [KHG24622, (2-cycloheptylimino-3-methyl-1,3-thiazolidine-4-yl)-N-phenyl-carboxamide], 208 °C.
With `Br.CN1C(=NC2CCCCCC2)SCC1C(=O)Nc1cc(Cl)cc(Cl)c1` (stereo not drawn) the figure was 275.2 °C.
The result for `CN1C(=NC2CCCCCC2)SCC1C(=O)Nc1cc([N+](=O)[O-])ccc1F` (stereo not drawn) [KHG24661, (2-cycloheptylimino-3-methyl-1,3-thiazolidine-4-yl)-N-(2-fluoro-5-nitrophenyl)-carboxamide] reads 151.1 °C; that for `Cl.O=C(CC1CSC(=NC2CCCCC2)N1Cc1ccccc1)Nc1cc(C(F)(F)F)cc(C(F)(F)F)c1` (stereo not drawn), 234.6 °C; that for `CCOc1ccc(NC(=O)CC2CSC(=NC3CC3)N2C)cc1.Cl` (stereo not drawn), 219 to 220 °C.
`CN1C(=NC2CC2)SCC1CC(=O)Nc1ccc(Cl)cc1.Cl` (stereo not drawn) gave a melting point of 241.5 to 242.5 °C.
The result for `Cl.O=C(CC1CSC(=NC2CCCCC2)N1C1CCCCC1)Nc1cc(Cl)cc(Cl)c1` (stereo not drawn) reads 202 °C.
With `CN1C(=NC2CCCC2)SCC1CC(=O)Nc1ccc(F)cc1F.Cl` (stereo not drawn) the figure was 240 to 242.5 °C.
With `Br.CCc1ccc(NC(=O)C2CSC(=NC3CCCCCC3)N2C)cc1` (stereo not drawn) the figure was 278 to 279 °C.
Molecule `Br.CN1C(=NC2CCCCCC2)SCC1C(=O)Nc1ccc(Oc2ccccc2)cc1` (stereo not drawn) yielded a melting point of 149.5 °C.
The result for `Br.CN1C(=NC2CCCCCC2)SCC1C(=O)Nc1cc(C(F)(F)F)cc(C(F)(F)F)c1` (stereo not drawn) reads 274.1 °C.
With `CCCCN1C(=NC23CC4CC(CC(C4)C2)C3)SCC1CC(=O)Nc1cc(Cl)cc(Cl)c1.Cl` (stereo not drawn) the figure was 164 °C; with `CC1SC(=NC2CCCC2)N(C)C1CC(=O)Nc1ccccc1F.Cl` (stereo not drawn), 153 °C; with `CN1C(=NC2CC2)SCC1CC(=O)Nc1cc(Cl)cc(Cl)c1.Cl` (stereo not drawn), 260.5 to 261 °C.
The result for `CC1SC(=NC2CCCCC2)N(C)C1CC(=O)Nc1ccc([N+](=O)[O-])cc1.Cl` (stereo not drawn) reads 215 to 217 °C; that for `CC(C)(C)c1ccc(NC(=O)CC2CSC(=NC3CCCCC3)N2C2CCCCC2)cc1.Cl` (stereo not drawn), 244 °C; that for `CN1C(=NC2CCCCCC2)SCC1C(=O)Nc1ccccc1.Cl` (stereo not drawn), 211.4 °C.
